Earlier results as cited in patent US9611229B2, “1,2,3-triazole-4-amine derivatives for the treatment of sigma receptor related diseases and disorders” (LABORATORIOS DEL DR. ESTEVE S.A., priority 2013, dated 2017).

What was measured:
sigma 2 (σ-2) site = sigma 2 (σ-2) site (Homo sapiens (Human), UniProt Q5BJF2)
sigma 1 (σ-1) site = sigma 1 (σ-1) site (Homo sapiens (Human), UniProt Q99720)

SKF 10047
affinity for the sigma 2 (σ-2) site (sigma 2 (σ-2) site): micromolar affinity
affinity for the sigma 1 (σ-1) site (sigma 1 (σ-1) site): nanomolar affinity
